Laboratory results published in US7531502B2, “Diagnostic conjugate useful for intracellular imaging and for differentiating between tumor- and non-tumor cells” (Deutsches Krebsforschungszentrum Stiftung Des Offentlichen …, priority 2002, dated 2009).

System: HeLa cervix carcinoma cells
Assay type: cell-based, human
Description: (a) Kinetic Studies: HeLa-cell-Uptake of the Gd-complex-transporter [without Address-sequence or with Either Antisense (ACGT)- or Random-sequence (RCGT)] Compared to Magnevist®. Living HeLa-cells were harvested and divided into tubes (Falcon) (Cell No.: 20×10^6 cells per tube). The Gd-complex-transporter without address-sequence and the Magnevist® were each dissolved in MEM culture medium in a concentration of 100 pM and were then incubated for 10, 20, 30 and 60 minutes. […] T1 and T2 relaxation-times within the pellets of both tubes were measured to evaluate the intracellular relaxivity of the respective contrast agents (R=1/T1). The T1-relaxation time was measured by means of an inversion-recovery-sequence (TR: 5000 ms/TE: 76 ms/TI: 25-4000 ms, 15 different TI-values, scan-time 15×25 sec, FOV: 160 mm×160 mm, Matrix: 132×256, slice thickness: 7 mm, pixel size: 1.21×0.63 mm). T2 relaxation-time was measured by a multi-echo-sequence (TR: 5000 ms/16 TE-values: 30 ms−245 ms, FOV: 250 mm×250 mm, Matrix: 256×256, slice thickness: 5 mm, pixel size: 0.98×0.98 mm, scan time: 21 min 21 sec). […] This procedure was repeated hourly until no signal increase compared to the control tube (HeLa cells or lymphocytes in MEM medium without contrast agent) could be detected in T1 weighted sequences.

## CNC[C@H](O)[C@@H](O)[C@H](O)[C@H](O)CO.CNC[C@H](O)[C@@H](O)[C@H](O)[C@H](O)CO.O=C([O-])CN(CCN(CC(=O)[O-])CC(=O)O)CCN(CC(=O)[O-])CC(=O)O.[Gd+3] [Magnevist®, reference compound]
HeLa cells, 100 pM, 1 hour incubation
  MR signal change compared with HeLa cells incubated solely in MEM: no signal change
HeLa-cell pellets after incubation, inversion-recovery T1 measurement
  relaxivity R (R=1/T1) within the HeLa-cell pellets: 0.000995
